Reference: US12162859B2, “Crystalline and amorphous forms of a compound for the targeted degradation of estrogen receptor” (Arvinas Operations, Inc., priority 2020, dated 2024)
In brackets after ≈: the same amount, converted by molar mass.

Legend:
Format in all cases: physicochemical
[1] = Thermodynamic solubility of Form I in solvents and aqueous pH media; conditions: for solubility thermodynamic: thermodynamic from solid
[2] = Relative stability of the four identified polymorphic forms
Text: A summary of the relevant characteristics of Form I is found below in Table 10: […]

[3] = Hygroscopicity (DVS water uptake at 90% RH)
[4] = 1 week stability of Form I under storage conditions

Question: With `O=C1CC[C@H](N2Cc3cc(N4CCN(CC5CCN(c6ccc([C@@H]7c8ccc(O)cc8CC[C@@H]7c7ccccc7)cc6)CC5)CC4)ccc3C2=O)C(=O)N1` [Form I, (S)-3-(5-(4-((1-(4-((1R,2S)-6-hydroxy-2-phenyl-1,2,3,4-tetrahydronaphthalen-1-yl)phenyl)piperidin-4-yl)methyl)piperazin-1-yl)-1-oxoisoindolin-2-yl)piperidine-2,6-dione] as the molecule, how does the “Solid form recovered in thermodynamic solubility test” value (shortened to “Solid form recovered”) ([1]; 1-Butanol) read?
Answer: Its value is “Form I”.

Question: What about the solubility thermodynamic ([1]; 1-butanol, organic solvent or mixture) of the same molecule?
Answer: Its solubility thermodynamic is 500 µg/mL (≈ 691 µM).

Question: And the “Solid form recovered” value ([1]; Acetone)?
Answer: The value was “Form I (PO)”.

Question: And the solubility thermodynamic ([1]; DCM:methanol (90:10 v/v), organic solvent or mixture)?
Answer: The solubility thermodynamic was greater than 67000 µg/mL.

Question: And the “Solid form recovered” value ([1]; Dichloromethane)?
Answer: The value was “Form I (PO)”.

Question: And the “Solid form recovered” value ([1]; Ethanol)?
Answer: Its value is “Form I”.

Question: What about the “Solid form recovered” value ([1]; Methanol) of the same molecule?
Answer: The value was “Form I”.

Question: What about the solubility thermodynamic ([1]; N,N′-dimethylacetamide, organic solvent or mixture) of the same molecule?
Answer: Its solubility thermodynamic is greater than 100000 µg/mL.

Question: And the solubility thermodynamic ([1]; THF, organic solvent or mixture)?
Answer: Its solubility thermodynamic is greater than 67000 µg/mL.

Question: And the solubility thermodynamic ([1]; acetone, organic solvent or mixture)?
Answer: Its solubility thermodynamic is 4000 µg/mL (≈ 5530 µM).

Question: And the solubility thermodynamic ([1]; aqueous pH medium, pH 1, simulated gastric fluid)?
Answer: Its solubility thermodynamic is 100 µg/mL (≈ 138 µM).

Question: What about the solubility thermodynamic ([1]; aqueous pH medium, pH 4, aqueous buffer) of the same molecule?
Answer: The solubility thermodynamic was less than 50 µg/mL.

Question: What about the solubility thermodynamic ([1]; aqueous pH medium, pH 5, aqueous buffer) of the same molecule?
Answer: The solubility thermodynamic was less than 50 µg/mL.

Question: What about the solubility thermodynamic ([1]; aqueous pH medium, pH 6, aqueous buffer) of the same molecule?
Answer: The solubility thermodynamic was less than 50 µg/mL.

Question: And the solubility thermodynamic ([1]; dichloromethane, organic solvent or mixture)?
Answer: Its solubility thermodynamic is 14800 µg/mL (≈ 20400 µM).

Question: What about the solubility thermodynamic ([1]; ethanol, organic solvent or mixture) of the same molecule?
Answer: The solubility thermodynamic was 800 µg/mL (≈ 1110 µM).

Question: And the solubility thermodynamic ([1]; methanol, organic solvent or mixture)?
Answer: The solubility thermodynamic was 1100 µg/mL (≈ 1520 µM).

Question: What about the “Solid form recovered” value ([1]; pH 1) of the same molecule?
Answer: Its value is “Form I”.

Question: What about the “Solid form recovered” value ([1]; pH 4) of the same molecule?
Answer: Its value is “Amorphous”.

Question: And the “Solid form recovered” value ([1]; pH 5)?
Answer: Its value is “Form I”.

Question: And the “Solid form recovered” value ([1]; pH 6)?
Answer: The value was “Form I”.

Question: What about the “Stability relative to the other identified forms” value [2] of the same molecule?
Answer: Its value is “most stable”.

Question: And the “Hygroscopicity (water uptake at 90% RH)” value ([3]; 90% RH)?
Answer: Its value is 1.7%.

Question: What about the hygroscopicity ([3]; at 90% RH) of the same molecule?
Answer: Its hygroscopicity is 1.7 wt. %.

Question: What about the “Post-DVS XRPD” value ([3]; solid form by XRPD after DVS) of the same molecule?
Answer: The value was “Form I”.

Question: What about the “1 Week Stability, solid form” value ([4]; 40° C./75% RH) of the same molecule?
Answer: The value was “Form I”.

Question: And the “1 Week Stability, solid form” value ([4]; 80° C.)?
Answer: The value was “Form I”.

Question: And the “1 Week Stability, solid form” value ([4]; Ambient)?
Answer: Its value is “Form I”.
